Results: paper PMC2713172 (Biochemistry, 2008)

Experiments:
[1] = target: T1, CYP2C9 F114W/F476W double mutant (Homo sapiens, UniProt P11712, F114W/F476W)
CYP2C9 F100L mutant = CYP2C9 F100L mutant (Homo sapiens, UniProt P11712, F100L); conditions: F100L
CYP2C9 F114W mutant [2] = target: T2, CYP2C9 F114W mutant (Homo sapiens, UniProt P11712, F114W); conditions: F114W
[3] = target: T1, CYP2C9 F114W/F476W double mutant; conditions: F114W/F476W
CYP2C9 F476W mutant = CYP2C9 F476W mutant (Homo sapiens, UniProt P11712, F476W); experiment: in vitro; conditions: pH 7.4
CYP2C9 F114W mutant [4] = target: T2, CYP2C9 F114W mutant; experiment: biochemical
[5] = target: CYP2C9 F114L/F476L double mutant (Homo sapiens, UniProt P11712, F114L/F476L); experiment: biochemical
[6] = target: T1, CYP2C9 F114W/F476W double mutant; experiment: biochemical

percent of wild-type kcat/Km [1]: 3% | kcat ([1]; substrate hydroxylation): 0.0517 ± 0.0013 s⁻¹ | percent of wild-type ΔA/K (CYP2C9 F100L mutant): 137% | ΔA/K (CYP2C9 F100L mutant): 7.3 μM^−1 × 10^−3 | ΔAmax (maximum observed difference 390–420 nm) (CYP2C9 F100L mutant): 16 ± 0.3 ×10^−3 | percent of wild-type ΔA/K (CYP2C9 F114W mutant [2]): 160% | ΔA/K (CYP2C9 F114W mutant [2]): 8.5 μM^−1 × 10^−3 | ΔAmax (maximum observed difference 390–420 nm) (CYP2C9 F114W mutant [2]): 34 ± 0.4 ×10^−3 | percent of wild-type ΔA/K [3]: 6% | ΔA/K [3]: 0.3 μM^−1 × 10^−3 | ΔAmax (maximum observed difference 390–420 nm) [3]: 7.3 ± 0.4 ×10^−3 | Km at 20 min (CYP2C9 F476W mutant): 105 ± 3.9 µM | Kd (CYP2C9 F114W mutant [4]): 4 ± 0.2 µM | Kd [5]: 9.9 ± 1.3 µM | Kd [6]: 22.3 ± 4.1 µM
Compound: C[C@H](C(=O)O)c1ccc(-c2ccccc2)c(F)c1 [(S)-flurbiprofen]
